Source: PMC7932537, “Quantitative profiling of protease specificity” (PLoS Computational Biology, 2021)

Tests used:
[1] = tested on: MMP-2; assay: N-terminomic (TMT) analysis of MMP-treated HEK293 secretome: isotopic enrichment of novel N-termini; format: biochemical, human; conditions: for isotopic enrichment (log2(ratio)): MMP2 cleavages in HEK293 cell proteins, determined by LC-MS/MS, novel N-termini, sections log2(ratio) >3σ, 2σ-3σ, 1σ-2σ, RP above 4.5
Description: (§1) This was done to achieve a reasonable compromise between the false positive and false negative rates based on the statistical model developed by the authors. […] (See Methods for details).
(§2) HEK293 cells were seeded in 150-mm tissue culture dishes (Corning) and grown to confluence. The confluent cultures were washed with PBS several times to remove serum proteins and kept in serum-free DMEM supplemented with 1 μM GM6001 for 72 hours at 37 C, 5% CO2. The conditioned media was centrifuged at 10,000 x g for 30 minutes at 4 C and concentrated ~100-fold using Centricon Plus-70 (AMD Millipore) 3-kDa m.w. cut-off ultrafilter, and the buffer was exchanged to 50 mM HEPES pH 7.0 containing 150 mM NaCl and 10 mM CaCl2 (Reaction Buffer) using a PD-10 desalting column (GE Healthcare). Aliquots containing 240 μg total protein were incubated at 37 C in the presence of 750 nM MMP2 or 9 or the Reaction Buffer alone for 2 hours. Each reaction was carried out in duplicate. The reactions were stopped by addition of 20 mM EDTA and subjected to denaturation/reduction (4M Urea and 10 mM TCEP, 1 h, 22°C) and alkylation (20 mM iodoacetamide, 30 min, 22°C, in dark). […] The TMT-labeled samples were pooled together, and subjected to TCA precipitation (20% TCA, 16 h, 4°C). Each pellet was washed with -20°C acetone, recovered in 50 mM Tris-HCl pH 8.0, and then digested with trypsin/Lys-C (Promega) for 16 h at 37°C. Digestions were stopped with 0.2% TFA and centrifuged to remove insoluble material. The supernatants were then desalted using Sep-Pak C18 cartridge (50 mg), and then lyophilized.
(§3) Dried pooled sample was reconstituted in 20 mM ammonium formate pH ~10 and fractionated using a Waters Acquity BEH C18 column (2.1x 15 cm, 1.7 μm pore size) mounted on an M-Class Ultra Performance Liquid Chromatography (UPLC) system (Waters). […] A total of 32 fractions were collected and pooled in a non-contiguous manner into 16 total fractions. Pooled fractions were dried to completeness in a SpeedVac concentrator prior to mass spectrometry analysis.
(§4) Dried peptide fractions were reconstituted with 2% ACN-0.1% FA and analyzed by LC-MS/MS using a Proxeon EASY nanoLC system (Thermo Fisher Scientific) coupled to a Q-Exactive Plus mass spectrometer (Thermo Fisher Scientific). […] The mass spectrometer was operated in positive data-dependent acquisition mode. MS1 spectra were measured with a resolution of 70,000 (AGC target: 1e6; mass range: 350–1700 m/z).
(§5) The false discovery rate (FDR) filter for spectrum and protein identification was set to 1%. Carbamidomethylation of cysteines was searched as a fixed modification, while oxidation of methionines and N-terminal acetylation were searched as variable modifications. Enzyme was set to trypsin in a semispecific mode and a maximum of two missed cleavages was allowed for searching. To obtain quantification of the TMT-labeled N-termini, two independent searches were performed–one with TMT10plex MS2 N-terminal reporter quantification and the other for quantification of N-terminal and lysine sidechain.

[2] = tested on: MMP-9; assay: as above; format: biochemical, human; conditions: for isotopic enrichment (log2(ratio)): MMP9 cleavages in HEK293 cell proteins, determined by LC-MS/MS, log2(ratio) range (>3σ, 2σ-3σ, 1σ-2σ); for isotopic enrichment (log2(ratio)) (acc.to MMP9): HEK293 proteins
Description: as §1, §2, §3, §4, §5

[3] = MS detected cleavage sequence, HEK293 proteins, common MMP2-9 selectome
[4] = MS detected cleavage sequence, common MMP2-9 selectome
[5] = MMP9, common set of MMP2-9 selectome, LC-MS/MS
[6] = MMP2 cleaved HEK293 proteins, common set of MMP2-9 selectome, LC-MS/MS
[7] = MS detected cleavage sequence, HEK293 proteins, unique part of MMP2 selectome
[8] = MS detected cleavage sequence, unique part of MMP2 selectome

| Substance | isotopic enrichment (log2(ratio)) (acc.to MMP2) [1, 3] | isotopic enrichment (log2(ratio)) [2] | isotopic enrichment (log2(ratio)) (acc.to MMP9) [2, 4] | isotopic enrichment (log2(ratio)) (acc.to MMP9) [2, 5] | isotopic enrichment (log2(ratio)) [1] | isotopic enrichment (log2(ratio)) (acc.to MMP2) [1, 6] | isotopic enrichment (log2(ratio)) (acc.to MMP2) [1, 7] | isotopic enrichment (log2(ratio)) (acc.to MMP9) [2, 8] |
| --- | --- | --- | --- | --- | --- | --- | --- | --- |
| PFPDG-LAEDID | 0.9928 log2(ratio) | 3.878 | 3.878 log2(ratio) | – | – | – | – | – |
| PQAKA-LLQDKD | 0.9928 log2(ratio) | 1.48 | 1.48 log2(ratio) | 1.48 | – | – | – | – |
| PTAAA-IAYGLD | – | – | – | 0.8074 | 1.585 log2(ratio) | 1.585 | – | – |
| PTPVP-VVGSQM | 1.915 log2(ratio) | 2.707 | 2.707 log2(ratio) | 2.707 | – | 1.915 | – | – |
| QLNAQ-LAAGNP | – | – | – | – | – | – | 1.66 log2(ratio) | 0.8237 log2(ratio) |
| QSPVA-VSQSKP | 4.031 log2(ratio) | 4.621 | 4.621 log2(ratio) | 4.621 | – | 4.031 | – | – |
| RKATP-YTFPGG | 1.541 log2(ratio) | 1.753 | 1.753 log2(ratio) | 1.753 | – | 1.541 | – | – |
| RTLRA-VCGQPG | 0.2987 log2(ratio) | 1.47 | 1.47 log2(ratio) | – | – | – | – | – |
| SDPLT-LLQADT | 2.4906 log2(ratio) | 2.254 | 2.254 log2(ratio) | 2.254 | 1.22 log2(ratio) | 1.22 | – | – |
| SEPAD-FKVDED | – | – | – | 1.104 | 1.891 log2(ratio) | 1.891 | – | – |
| SHLGR-YLAADK | – | – | – | – | – | – | 2.483 log2(ratio) | -1.0291 log2(ratio) |
| SLARA-YSSFNP | 2.269 log2(ratio) | 2.539 | 2.539 log2(ratio) | 2.539 | – | 2.269 | – | – |
| SSAAA-LSLCEG | – | – | – | 0.3785 | 1.036 log2(ratio) | 1.036 | – | – |
| SSPRH-SEAATA | 3.599 log2(ratio) | 4.654 | 4.654 log2(ratio) | 4.654 | – | 3.599 | – | – |
| STMNM-LGGGGS | – | – | – | – | – | – | 2.417 log2(ratio) | 0.9184 log2(ratio) |
| SYAGS-LAEPYE | – | – | – | 0.9635 | 1.521 log2(ratio) | 1.521 | – | – |
| TDPSK-LDSGKE | 1.911 log2(ratio) | 2.9782 | 2.9782 log2(ratio) | 2.9782 | – | 1.911 | – | – |
| TGPRF-LISDRD | 1.669 log2(ratio) | 2.331 | 2.331 log2(ratio) | 2.331 | – | 1.669 | – | – |
| TQQAQ-LAAAAE | – | – | – | – | – | – | 2.74 log2(ratio) | 0.8319 log2(ratio) |
| TRPLA-VEVVTE | 4.353 log2(ratio) | 4.995 | 4.995 log2(ratio) | 4.995 | – | 4.353 | – | – |
| VAAKN-LQEAEE | 1.485 log2(ratio) | 2.192 | 2.192 log2(ratio) | 2.192 | – | 1.485 | – | – |
| VCPRG-YVTSTD | 2.108 log2(ratio) | 5.174 | 5.174 log2(ratio) | 5.174 | – | 2.108 | – | – |
| VLPVN-VTDYCQ | 0.7225 log2(ratio) | 3.756 | 3.756 log2(ratio) | – | – | – | – | – |
| VNPVL-LSGPEA | 1.599 log2(ratio) | 2.457 | 2.457 log2(ratio) | 2.457 | – | 1.599 | – | – |
| VTPAN-ASGIND | – | – | – | – | – | – | 0.9486 log2(ratio) | 1.864 log2(ratio) |
| VVPFG-VPASAT | 0.189 log2(ratio) | 2.014 | 2.014 log2(ratio) | – | – | – | – | – |
| YNPMA-LYGSVP | 0.669 log2(ratio) | 1.709 | 1.709 log2(ratio) | – | – | – | – | – |
| YRPVA-VALDTK | 1.934 log2(ratio) | 2.604 | 2.604 log2(ratio) | 2.604 | – | 1.934 | – | – |
